Experimental findings from US11045519B2, “Arginine-rich polypeptide compositions and methods of using same” (UNM Rainforest Innovations, priority 2017, dated 2021) are described below.

Assay [1] deals with HPV16 PsVs. Briefly: Direct pre-incubation of HPV16 PsVs with peptide, dilution below IC50, then infection of HaCaT cells. Format: cell-based. As to conditions: 0.3 μM, 1 h 37° C., diluted 1500-fold, HaCaT cells 24 h. The method, then:
FIG. 3. […] HPV16 PsVs were incubated with 0.3 μM polyR for one hour at 37° C. The virus-polyR mixture was diluted with CM to reduce the polyR concentration below the IC50 value prior to incubation with HaCaT cells for 24 hours (HPV16-polyR). The control included untreated HPV16 PsVs (HPV16) added to HaCaT cells. Infection was measured after 24-hour incubation.
FIG. 15. Direct interaction of PrS to HPV16 PsVs. HPV16 PsVs were incubated with 1 μM PrS or HA:PrS complex for one hour at 37° C. Virus-PrS/or HA:PrS mixture was diluted with CM in order to reduce the PrS concentration below the IC50 value, and incubated with HaCaT cells for 24 hours. The control included untreated HPV16 PsVs. Infection was measured after 24 hours incubation as described in FIG. 12.
Typically, direct interaction of cationic inhibitors with the viral capsids of non-enveloped viruses (including HPV) is sufficient for antiviral activity. To determine whether polyR inhibited HPV16 infectivity by direct interaction with viral capsids, HPV16 PsVs were incubated with […] for one hour at 37° C. The virus-polyR mixture was diluted 1500-fold to reduce the polyR concentration below the IC50 value, then incubated with HaCaT cells. The control included cells exposed to HPV PsVs that were not treated with polyR. […]

Assay [2] concerns HPV16 PsVs. The assay can be described thus: HPV16 PsV infection of CHO mutant cells. Type of assay: cell-based. As to conditions: 3 μM, 1 h pre-treatment, 24 h. Here is the method:
FIG. 7. HPV binding and infection of CHO mutant cells in the presence of polyR. CHO mutant pgsA-745 cells (GAG deficient) and CHO mutant pgsD-677 cells (HS deficient) were grown in Ham's F12 medium supplemented with 10% fetal bovine serum and 1% Glutamax (Invitrogen, Thermo Fisher Scientific, Inc., Carlsbad, Calif.). (A) Cells were incubated with 3 μM polyR in the medium for 30 minutes before adding HPV16 PsVs and incubating at 4° C. for one hour. After extensive washing with PBS, cells were lysed and analyzed for the content of L1, as described in FIG. 4A. (B) Semi-confluent CHO-pgsA were treated with 3 μM polyR for one hour prior to adding HPV16 PsVs. Infection was scored at 24 hours post infection as described in FIG. 1. (C) Semi-confluent CHO-pgsD cells were treated with 3 μM polyR for one hour prior to adding HPV16 PsVs. Infection was scored at 24 hours post infection as described in FIG. 1.
To test the effects of polyR on cells that differentially express heparan sulfate versus heparan sulfonated proteoglycans, like glycosaminoglycans (GAGs), genetically mutant clones of Chinese hamster ovary (CHO) cell lines were used. […] First, the effect of polyR on HPV16 PsV binding to these mutant cells was measured.

The target of a further assay is T1, recombinant His-furin (Homo sapiens, UniProt P09958).
T1 construct: His
The assay can be described thus: Furin cleavage of HPV16 L2 capsid protein (immunoblot). As to conditions: 1 μM, 3 nM His-furin, 2 h. Type of assay: biochemical. The method, then:
FIG. 9. PolyR inhibits HPV16 L2 protein cleavage by furin and induces accumulation of internalized virus particles in late endosomal fraction. (A) Equal amount of HPV16 diluted in 50 μl furin assay buffer (1 mM CaCl2), 100 mM HEPES, 0.5% Triton X-100, 1 mM β-mercaptoethanol) was loaded into six tubes, […], in the presence of 1.3 μM furin inhibitor1 (Merck Millipore Corp., Burlington, Mass.), or 1 μM polyR. Samples were mixed with SDS-PAGE sample buffer and boiled before fractionation on 9% gel. Proteins were transferred onto PVDF membranes and after blocking, incubated with affinity-purified rabbit anti-HPV16 polyclonal antibody. Secondary donkey anti-rabbit horseradish peroxidase-coupled antibody was used for detection of HPV16 capsid proteins. (B) HaCaT cells grown on coverslips were incubated with HPV16 PsVs for one hour at 37° C. to initiate virus binding (and partial internalization) before adding 1 μM polyR and further incubated for seven hours. […]
Cleavage of the L2 minor capsid protein by the cellular pro-protein convertase, furin, is an essential step in infectious entry of HPVs. […] After two hours of incubation, HPV16 cleavage was assessed by immunoblotting using anti-HPV 16 polyclonal antibody. […]
For orientation: A western blot detects proteins with antibodies after separation by electrophoresis.

T1 sequence (P09958 108-794): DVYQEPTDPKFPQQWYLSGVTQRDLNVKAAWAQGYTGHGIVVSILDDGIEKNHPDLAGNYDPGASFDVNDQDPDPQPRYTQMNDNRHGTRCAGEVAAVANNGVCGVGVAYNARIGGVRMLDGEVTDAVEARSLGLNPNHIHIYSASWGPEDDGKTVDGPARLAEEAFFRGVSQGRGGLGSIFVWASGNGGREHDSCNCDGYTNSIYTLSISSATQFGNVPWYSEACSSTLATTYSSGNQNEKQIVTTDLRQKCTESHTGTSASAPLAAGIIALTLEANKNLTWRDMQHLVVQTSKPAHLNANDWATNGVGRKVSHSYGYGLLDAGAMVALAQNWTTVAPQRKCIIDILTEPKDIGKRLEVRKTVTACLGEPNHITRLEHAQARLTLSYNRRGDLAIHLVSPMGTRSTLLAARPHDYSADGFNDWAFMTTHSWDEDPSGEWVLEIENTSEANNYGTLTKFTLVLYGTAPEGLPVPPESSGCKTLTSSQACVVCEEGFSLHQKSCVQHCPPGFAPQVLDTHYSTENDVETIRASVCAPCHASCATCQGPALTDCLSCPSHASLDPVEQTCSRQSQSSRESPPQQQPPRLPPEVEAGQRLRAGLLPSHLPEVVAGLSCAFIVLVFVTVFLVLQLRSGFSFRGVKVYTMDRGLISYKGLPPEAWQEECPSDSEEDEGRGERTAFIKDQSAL

As for poly-L-arginine [polyR], in the assay on HPV16 PsVs [1], the “effect of pre-incubation of HPV16 PsVs on infection” value is reported as “did not inhibit infection to a statistically significant degree”. Also, the “reduction of HPV16 infection” value is recorded as 63% in the assay with HPV16 PsVs [2] (CHO pgsA-745 cells) and 92% with HPV16 PsVs [2] (CHO pgsD-677 cells). Moreover, the “furin cleavage of L2 capsid protein” value on recombinant His-furin is “inhibited cleavage of the L2 capsid protein”.
